Assay results reported in patent US8735398B2 (Bristol-Myers Squibb Company, priority 2009, dated 2014).

These compounds were tested on HCV 1b genotype (assay: HCV replicon assay (HCV-neo replicon cells, wild-type)). Conditions: Hepatitis C virus, HCV 1b genotype replicon; class symbol; read-out: EC50 Range against HCV 1b.
Type: cell-based, Hepatitis C virus
Method in brief: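 HCV-neo replicon cells (wild-type) and replicon cells carrying NS5A resistance substitutions were treated with compounds; assay per O'Boyle et al. 2005, with luciferase-reporter read-out variants also used.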

SMILES | EC50 [nM]
O=C(Nc1ccc(-c2ccc(-c3ccc(NC(=O)[C@@H]4CCCN4C(=O)c4nccc5ccccc45)cc3)o2)cc1)[C@@H]1CCCN1C(=O)c1nccc2ccccc12 [JG-62, (2S,2′S)-N,N′-(2,5-furandiyldi-4,1-phenylene)bis(1-(1-isoquinolinylcarbonyl)-2-pyrrolidinecarboxamide)] | 100 to 999
O=C(Nc1ccc(-c2nncn2-c2ccc(NC(=O)[C@@H]3CCCN3C(=O)Cc3ccccc3)cc2)cc1)[C@@H]1CCCN1C(=O)Cc1ccccc1 [OL-15, (2S,2′S)-N,N′-(4H-1,2,4-triazole-3,4-diyldi-4,1-phenylene)bis[1-(phenylacetyl)-2-pyrrolidinecarboxamide]] | 1000 to 10000
O=C(Nc1ccc(-c2nnc(-c3ccc(NC(=O)[C@@H]4CCCN4C(=O)C4CCC4)cc3)o2)cc1)[C@@H]1CCCN1C(=O)C1CCC1 [Example D-59, (2S,2′S)-N,N′-(1,3,4-oxadiazole-2,5-diyldi-4,1-phenylene)bis[1-(cyclobutylcarbonyl)-2-pyrrolidinecarboxamide]] | 1000 to 10000
O=C(C(=O)N1CCC[C@H]1C(=O)Nc1ccc(-c2cc(-c3ccc(NC(=O)[C@@H]4CCCN4C(=O)C(=O)c4ccccc4)cc3)[nH]n2)cc1)c1ccccc1 [JG-31, (2S,2′S)-N,N′-(1H-pyrazole-3,5-diyldi-4,1-phenylene)bis(1-(oxo(phenyl)acetyl)-2-pyrrolidinecarboxamide)] | 4.57 to 99
O=C(Nc1ccc(-c2nc[nH]c2-c2ccc(NC(=O)[C@@H]3CCCN3C(=O)c3nccc4ccccc34)cc2)cc1)[C@@H]1CCCN1C(=O)c1nccc2ccccc12 [JG-48, (2S,2′S)-N,N′-(1H-imidazole-4,5-diyldi-4,1-phenylene)bis(1-(1-isoquinolinylcarbonyl)-2-pyrrolidinecarboxamide)] | 1000 to 10000
CO[C@H](C(=O)N1CCC[C@H]1C(=O)Nc1ccc(-c2cnc(-c3ccc(NC(=O)[C@@H]4CCCN4C(=O)[C@@H](OC)c4ccccc4)cc3)o2)cc1)c1ccccc1 [JG-19, (2S,2′S)-N,N′-(1,3-oxazole-2,5-diyldi-4,1-phenylene)bis(1-((2S)-2-methoxy-2-phenylacetyl)-2-pyrrolidinecarboxamide)] | 4.57 to 99
CN(C)[C@@H](C(=O)N1CCCN1C(=O)Nc1ccc(-c2cnc(-c3ccc(NC(=O)N4CCCN4C(=O)[C@@H](c4ccccc4)N(C)C)cc3)o2)cc1)c1ccccc1 [FY-9, N,N′-(1,3-oxazole-2,5-diyldi-4,1-phenylene)bis(2-((2R)-2-(dimethylamino)-2-phenylacetyl)-1-pyrazolidinecarboxamide)] | 4.57 to 99
COc1cccc2c(C(=O)N3CCC[C@H]3C(=O)Nc3ccc(-c4cc(-c5ccc(NC(=O)[C@@H]6CCCN6C(=O)c6nc(Cl)cc7c(OC)cccc67)cc5)[nH]n4)cc3)nc(Cl)cc12 [OL-41, (2S,2′S)-N,N′-(1H-pyrazole-3,5-diyldi-4,1-phenylene)bis(1-((3-chloro-5-methoxy-1-isoquinolinyl)carbonyl)-2-pyrrolidinecarboxamide)] | 4.57 to 99
O=C(Nc1ccc(-c2nnc(-c3ccc(NC(=O)[C@H]4CCCN4C(=O)c4cccc(F)n4)cc3)o2)cc1)[C@H]1CCCN1C(=O)c1cccc(F)n1 [RK-25, (2R,2′R)-N,N′-(1,3,4-oxadiazole-2,5-diyldi-4,1-phenylene)bis(1-((6-fluoro-2-pyridinyl)carbonyl)-2-pyrrolidinecarboxamide)] | 100 to 999
O=C(Nc1ccc(-c2cnc(-c3ccc(NC(=O)[C@@H]4CCCN4C(=O)[C@@H]4CCCN4)cc3)o2)cc1)[C@@H]1CCCN1C(=O)[C@@H]1CCCN1 [Example D-34, (2S,2′S)-N,N′-(1,3-oxazole-2,5-diyldi-4,1-phenylene)bis(1-((2S)-2-pyrrolidinylcarbonyl)-2-pyrrolidinecarboxamide)] | 1000 to 10000
COc1cccc(C(=O)N2CCC[C@H]2C(=O)Nc2ccc(-c3nnc(-c4ccc(NC(=O)[C@@H]5CCCN5C(=O)c5cccc(OC)c5)cc4)o3)cc2)c1 [RK-7, (2S,2′S)-N,N′-(1,3,4-oxadiazole-2,5-diyldi-4,1-phenylene)bis(1-(3-methoxybenzoyl)-2-pyrrolidinecarboxamide)] | 100 to 999
CC(=O)N[C@@H](C(=O)N1CCCC1C(=O)Nc1ccc(-c2cnc(-c3ccc(NC(=O)C4CCCN4C(=O)[C@H](NC(C)=O)c4ccccc4)cc3)o2)cc1)c1ccccc1 (stereo partly drawn) [OL-53, N,N′-(1,3-oxazole-2,5-diyldi-4,1-phenylene)bis(1-((2R)-2-acetamido-2-phenylacetyl)-2-pyrrolidinecarboxamide)] | < 4.57
O=C(Nc1ccc(-c2cnc(-c3ccc(NC(=O)[C@@H]4CCCN4C(=O)C(O)c4nccs4)cc3)o2)cc1)[C@@H]1CCCN1C(=O)C(O)c1nccs1 (stereo partly drawn) [Example D-10, (2S,2′S)-N,N′-(1,3-oxazole-2,5-diyldi-4,1-phenylene)bis(1-(hydroxy(1,3-thiazol-2-yl)acetyl)-2-pyrrolidinecarboxamide)] | 100 to 999
O=C(Nc1ccc(-c2cnc(-c3ccc(NC(=O)[C@@H]4CCCN4C(=O)[C@H](O)c4ccccc4Cl)cc3)o2)cc1)[C@@H]1CCCN1C(=O)[C@H](O)c1ccccc1Cl [JG-26, (2S,2′S)-N,N′-(1,3-oxazole-2,5-diyldi-4,1-phenylene)bis(1-((2R)-2-(2-chlorophenyl)-2-hydroxyacetyl)-2-pyrrolidinecarboxamide)] | < 4.57
C[C@H](NC(=O)Cc1ccccc1)C(=O)Nc1ccc(-c2nc[nH]c2-c2ccc(NC(=O)[C@H](C)NC(=O)Cc3ccccc3)cc2)cc1 [OL-9, (2S,2′S)-N,N′-(1H-imidazole-4,5-diyldi-4,1-phenylene)bis(2-((phenylacetyl)amino)propanamide)] | 1000 to 10000
COc1cccc2c(C(=O)N3CCC[C@H]3C(=O)Nc3ccc(-c4cnc(-c5ccc(NC(=O)[C@@H]6CCCN6C(=O)[C@@H](c6ccccc6)N(C)C)cc5)o4)cc3)nc(Cl)cc12 [OL-61, (2S)-1-((3-chloro-5-methoxy-1-isoquinolinyl)carbonyl)-N-(4-(2-(4-((((2S)-1-((2R)-2-(dimethylamino)-2-phenylacetyl)-2-pyrrolidinyl)carbonyl)amino)phenyl)-1,3-oxazol-5-yl)phenyl)-2-pyrrolidinecarboxamide] | 4.57 to 99
CN(C)[C@@H](C(=O)N1CCC[C@@H]1C(=O)N1CCC[C@H]1C(=O)Nc1ccc(-c2cnc(-c3ccc(NC(=O)[C@@H]4CCCN4C(=O)[C@H]4CCCN4C(=O)[C@@H](c4ccccc4)N(C)C)cc3)o2)cc1)c1ccccc1 [Example D-39, (2S,2′S)-N,N′-(1,3-oxazole-2,5-diyldi-4,1-phenylene)bis(1-(((2R)-1-((2R)-2-(dimethylamino)-2-phenylacetyl)-2-pyrrolidinyl)carbonyl)-2-pyrrolidinecarboxamide)] | 1000 to 10000
CCOC(=O)Cc1nc(-c2ccc(NC(=O)[C@H](C)NC(=O)OCc3ccccc3)cc2)c(-c2ccc(NC(=O)[C@H](C)NC(=O)OCc3ccccc3)cc2)o1 [OL-1d, 4,5-bis[4-[[(2S)-1-oxo-2-[[(phenylmethoxy)carbonyl]amino]propyl]amino]phenyl]-2-oxazoleacetic acid, ethyl ester] | 1000 to 10000

Same assay, conditions: Hepatitis C virus, HCV 1b genotype replicon; class symbols; read-out: EC50 Range against HCV 1b

SMILES | EC50 [nM]
COc1ccc2[nH]cc(CC(=O)N3CCC[C@H]3C(=O)Nc3ccc(-c4cnc(-c5ccc(NC(=O)[C@@H]6CCCN6C(=O)Cc6c[nH]c7ccc(OC)cc67)cc5)o4)cc3)c2c1 [XY-11, (2S,2′S)-N,N′-(1,3-oxazole-2,5-diyldi-4,1-phenylene)bis(1-((5-methoxy-1H-indol-3-yl)acetyl)-2-pyrrolidinecarboxamide)] | 100 to 999
O=C(Nc1ccc(-c2cnc(-c3ccc(NC(=O)[C@@H]4CCCN4C(=O)Cn4c(=O)[nH]c5ccccc54)cc3)o2)cc1)[C@@H]1CCCN1C(=O)Cn1c(=O)[nH]c2ccccc21 [JR-9, (2S,2′S)-N,N′-(2,5-oxazolediyldi-4,1-phenylene)bis[1-[(2,3-dihydro-2-oxo-1H-benzimidazol-1-yl)acetyl]-2-pyrrolidinecarboxamide]] | 100 to 999
O=C(Nc1ccc(-c2cnc(-c3ccc(NC(=O)[C@@H]4CCCN4C(=O)C4CSC5CCC(=O)N54)cc3)o2)cc1)[C@@H]1CCCN1C(=O)C1CSC2CCC(=O)N21 (stereo partly drawn) [JR-17, (2S,2′S)-N,N′-(2,5-oxazolediyldi-4,1-phenylene)bis[1-[(hexahydro-5-oxopyrrolo[2,1-b]thiazol-3-yl)carbonyl]-2-pyrrolidinecarboxamide]] | 1000 to 10000
O=C(Nc1ccc(-c2cnc(-c3ccc(NC(=O)[C@@H]4CCCN4C(=O)CN4C(=O)OC[C@H]4c4ccccc4)cc3)o2)cc1)[C@@H]1CCCN1C(=O)CN1C(=O)OC[C@H]1c1ccccc1 [JR-21, (2S,2′S)-N,N′-(2,5-oxazolediyldi-4,1-phenylene)bis[1-[[(4R)-2-oxo-4-phenyl-3-oxazolidinyl]acetyl]-2-pyrrolidinecarboxamide]] | 1000 to 10000
O=C(Nc1ccc(-c2cnc(-c3ccc(NC(=O)[C@@H]4CCCN4C(=O)CN4C(=O)OC[C@@H]4c4ccccc4)cc3)o2)cc1)[C@@H]1CCCN1C(=O)CN1C(=O)OC[C@@H]1c1ccccc1 [JR-20, (2S,2′S)-N,N′-(2,5-oxazolediyldi-4,1-phenylene)bis[1-[[(4S)-2-oxo-4-phenyl-3-oxazolidinyl]acetyl]-2-pyrrolidinecarboxamide]] | 1000 to 10000
CC1(C(=O)N2CCC[C@H]2C(=O)Nc2ccc(-c3cnc(-c4ccc(NC(=O)[C@@H]5CCCN5C(=O)C5(C)CC5)cc4)o3)cc2)CC1 [XY-39, (2S,2′S)-N,N′-(1,3-oxazole-2,5-diyldi-4,1-phenylene)bis(1-((1-methylcyclopropyl)carbonyl)-2-pyrrolidinecarboxamide)] | 100 to 999
CN(C)CC(=O)N1CCC[C@H]1C(=O)Nc1ccc(-c2cnc(-c3ccc(NC(=O)[C@@H]4CCCN4C(=O)CN(C)C)cc3)o2)cc1 [XY-5, (2S,2′S)-N,N′-(1,3-oxazole-2,5-diyldi-4,1-phenylene)bis(1-((dimethylamino)acetyl)-2-pyrrolidinecarboxamide)] | 1000 to 10000

Same assay, conditions: Hepatitis C virus, HCV 1b genotype replicon; read-out: EC50 1b

SMILES | EC50 [nM]
O=C(Nc1ccc(-c2nnc(-c3ccc(NC(=O)[C@@H]4CCCN4C(=O)C4CCC4)cc3)o2)cc1)[C@@H]1CCCN1C(=O)C1CCC1 [Example D-59, (2S,2′S)-N,N′-(1,3,4-oxadiazole-2,5-diyldi-4,1-phenylene)bis[1-(cyclobutylcarbonyl)-2-pyrrolidinecarboxamide]] | 5450
O=C(Nc1ccc(-c2nc[nH]c2-c2ccc(NC(=O)[C@@H]3CCCN3C(=O)c3nccc4ccccc34)cc2)cc1)[C@@H]1CCCN1C(=O)c1nccc2ccccc12 [JG-48, (2S,2′S)-N,N′-(1H-imidazole-4,5-diyldi-4,1-phenylene)bis(1-(1-isoquinolinylcarbonyl)-2-pyrrolidinecarboxamide)] | 2340
CO[C@H](C(=O)N1CCC[C@H]1C(=O)Nc1ccc(-c2cnc(-c3ccc(NC(=O)[C@@H]4CCCN4C(=O)[C@@H](OC)c4ccccc4)cc3)o2)cc1)c1ccccc1 [JG-19, (2S,2′S)-N,N′-(1,3-oxazole-2,5-diyldi-4,1-phenylene)bis(1-((2S)-2-methoxy-2-phenylacetyl)-2-pyrrolidinecarboxamide)] | 9
